Test results as given in patent publication EP0297946A2, “Cytochalasin purification methods and compositions” (priority 1987, dated 1989).
Several values for one entry are separate records, joined by “and”; a condition that tells them apart may be missing. Identical values can stand only once. Like-named read-outs stand apart in the source and are kept apart here.

Key:
[1] = Maximum tolerated single bolus dose (MTD) of CB by vehicle and route of administration; type: in vivo, CD2F₁ mice; conditions: for MTD: mouse, in vivo
Procedure: (§1) The maximum tolerated single bolus dose (MTD) of CB (LD₅₋₁₀) was estimated as a function of vehicle and route of administration, in M109 tumor-bearing, B16F10 tumor-bearing, and normal mice (Table 2). Both CD2F₁ and B6D2F₁ mice were tested. […] In tissue distribution studies of CB in vivo, 50 mg/kg (1000 ug/20 g mouse) was injected intraperitoneally and the distribution determined at time intervals thereafter as explained in Example 13. […] It is cleared from the spleen and pancreas by 12 hours, but persists in liver for 72 hours. Some CB is metabolized within the first few minutes after injection, but the remaining 35% persists in liver for up to 72 hours. Sustained release formulations such as liposomes would maintain active CB in tissues.
The vehicles used in the invention may be selected with regard to the intended route of administration and standard pharmaceutical practice. The preparations can be injected parenterally, for example, intra-arterially or intravenously. The preparations may also be administered via oral, subcutaneous, intraperitoneal, or intramuscular routes. For parenteral administration, they can be used, for example, in the form of a sterile pyrogen-free aqueous solution which may contain other solutes.
For example, in the present studies, 0.85% (wt/v) sterile sodium chloride solution, sterile pyrogen-free CM-cellulose (1%)Tween-20 (2%), 10% Intralipid (Cutter Laboratories), or 48% ethanol/sodium chloride (v/v) solution were used as vehicles. Liposomes can alternatively be used as a vehicle. In such cases, the CB can be entrapped by any of the methods known in the art for forming liposomes, mentioned hereinbelow, and administered by any of the above-named routes of administration.
The MTD of CB suspension in pyrogen-free carboxymethyl cellulose(1%)/Tween -20 (2%) was 100 mg/kg SC, 50 mg/kg IP, and 10 mg/kg IV when administered to CD2F₁ mice. In DMSO, the MTD was 25 mg/kg IP, and less than 100 mg/kg SC, and in 33% ethanol, 10 mg/kg IV. At doses of 100 -150 mg/kg CB administered SC in CMC/Tw to CD2F₁ mice that had sustained challenge 24 hr with M109 tumor cells implanted SC, appearance of measurable tumor nodules were delayed by 66%.
The maximum tolerated dose (MTD) of CB (50 mg/kg CB) by intraperitoneal administration was determined by the following procedure. A solution of CB as isolated by Example 2 was obtained by sonication of the CB in DMSO (to make a 25 mg/kg solution of CB) for 2 minutes in an ultrasonic bath at 80-90 Hz power.
The above procedure was repeated for CB in CM-cellulose/Tween 20 (CMC/Tw) vehicle (0.1 ml administered).
The above procedures were repeated for 25 and 100 mg/kg CB in DMSO, and for 100 mg/kg CB in CMC/Tw.
The maximum tolerated dose (MTD) of CB (150 mg/kg, in CMC/Tw) by subcutaneous administration over the peritoneal wall was determined by the procedure of Example 8.
The maximum tolerated dose (MTD) of CB (5 mg/kg) by intravenous administration was determined by the procedure of Example 7. The CB was suspended in 0.1 ml 95% ethanol/0.85% NaCl (1:2 v/v), heated to 37°C and administered via tail vein within 5 minutes of mixing.
The above procedure was repeated using 0.1 ml CM-Cellulose/Tween 20.
The above procedure was repeated using 10, 20, 40, and 50 mg/kg dose of CB with the CM-Cellulose/Tween 20 vehicle, and 10, 20, and 40 mg/kg CB with EtOH/NaCl.

[2] = Tissue distribution of CB in vivo after IP bolus injection, HPLC analysis of tissue extracts; parameters: species or system mice; conditions: 50 mg/kg IP single bolus
Procedure: as §1
Livers of mice treated according to Examples 4, 5 and 6 were homogenized with a Brinkman polytron using 5.0 ml of methanol /g tissue. The homogenate was centrifuged at 5000g for 5 minutes. The supernatant was brought to 80% water using HPLC grade water and passed through Sep-Pak C-18 cartridges that had first been conditioned with 5.0 ml methanol, followed by 10.0 ml of distilled water. The cartridges were dried under vacuum and washed with 3.0 ml hexane (HPLC grade), and the CB recovered with 2.0 ml of EtOAc (HPLC grade). The elutes were evaporated under a stream of nitrogen and dissolved in 250 ul tetrohydrofuran (HPLC grade). Samples were filtered through a 0.45 um nylon syringe filter into a 50 ul sample loop. The samples were analyzed by HPLC, using a regular phase silica column, a solvent system of hexane:tetrahydrofuran (60:40), and analyzed at 230 nm. The lower limit of sensitivity was determined to be 1 ug per total extract since 20% was analyzed with a quantitative limit of 0.2 ug.

[3] = system: Madison 109 (M109) carcinoma; assay: Madison 109 carcinoma tumor model in mice treated with a single bolus of CB; type: in vivo, CD2F₁ mice
Procedure: For SC tumors, growth was monitored by calculating tumor weight according to the methods of Johnson et al. (1975, Cancer Chemo. Rep., 59(4):697-705). For IP and IV-induced tumors, growth was determined by host survival. Metastases were determined at necropsy by fixation of the organ in Bouins solution according to standard procedure, and metastatic foci counted under a dissecting microscope (see Table 1).
Madison 109 (M109) carcinoma was maintained in Balb/c and CD2F₁ mice by serial passage of 20% tumor brei (approximately 1X10⁶ total cells) in mice every 12 days according to the techniques of Rose (1981, Cancer Treat. Rep., 65:299-312). The CD2F₁ were implanted with 0.2 ml M109 SC ventrally on the abdomen. Tumor brei were prepared by excising the tumor from the passage mouse, removing any necrotic areas, weighing the tumor, mincing it, and suspending the fragments in 0.1 ml 20% (v/v) penicillin/streptomycin (Gibco) and 0.85% (w/v) sterile sodium chloride solution (total 1.0 ml/g tumor), and dispersed by repeated aspiration and expulsion through a syringe. The suspension was then diluted to 20% with 0.85% sterile sodium chloride and 0.2 ml was injected SC. Viability of the tumor suspension was about 20%, as determined by the standard trypan blue exclusion test.
The above procedure was repeated, administering the M109 tumor brei IV 90.1 ml) through the tail vein, or IP (0.2 ml).
Mice (6) were subcutaneously implanted with 1X10⁵ tumor cells as isolated in Example 4 on Day 0, and drug treatment was given on Day 1. CB (100 mg/kg mouse, or 0.2 ml of 10.0 mg/ml CB, per 20 gm mouse), suspended in CMC/Tw was administered to mice.
Lower tumor weight was detected in all the treated groups as compared to controls, although this difference lessened with advancing stage of tumor growth. […] No effect on reducing tumor metastases in the liver or spleen was detected with SC administration of CB.

B16F10 tumor = assay: Dose response against B16F10 tumor in mice, CB given peri-tumorally SC; type: in vivo
Procedure: CB (100 mg/kg) administered peri-tumorally delays the tumor appears from Day 7 to Day 18, when treatment is administered on Day 1.

[4] = system: P388 murine leukemia cells (drug-resistant line); assay: cells; type: cell-based; conditions: Mus musculus
Procedure: ICs for cytochalasins and antineoplastic agents were determined by inoculating wells containing cultured cells with dilutions of the desired compound, and the resulting exposed cell viability determined at a fixed timepoint after exposure (i.e., 20 or 48 hours). The concentration of the compound that is found to inhibit 50% of the initial cells cultured is the IC50 of that compound with respect to those cells. The IC90 and IC100s can similarly be determined.
Inhibitory concentrations ("ICs") of ADR, CA, and CB on P388 murine leukemia cells (drug-resistant line) were determined as follows.
Cells (5 X 10⁴) were plated out in 200 uL of RPMI 1640 medium containing 10% calf serum. CB, CA, and ADR were added to wells as follows to determine inhibitory concentration as follows: 8 wells were inoculated with dilutions of CB: 0.00 uM CB, 1.00 uM CB, 2.00 uM CB, 4.00 uM CB, 10.00 uM CB, 20.00 uM, 40.00 uM CB, and 80.00 uM CB. […]
All wells were incubated at 37°C, in 5% CO₂ for 3 hours, after which time the plate was centrifuged at 600 X g for 5 minutes, the drug medium removed and replaced with 200 uL of fresh RPMI 1640 medium, containing 10% calf serum, centrifuged again at 600 X g, and cells refed and incubated for 45 hours at 37°C, in 5% CO₂. After the 45 hour incubation, the cells were analyzed for viability using the MTT reduction assay as described in Alley et al.

[5] = system: P388 murine leukemia cells (P388/ADR); assay: P388/ADR cells in 24-well plates, 3 hours exposure, Coulter counting after 96 hours; type: cell-based; conditions: Mus musculus
Procedure: P388 murine leukemia cells (P388/ADR) selected for multi-drug resistance to doxorubicin and other natural product anti-tumor agents, provided by the National Institutes of Health, were seeded at 5 X 10⁴ cells/ml in 24-well microtiter plates, 2.0 ml per well, in RPMI 1640 medium with 10% fetal calf serum and 10 uM mercaptoethanol. The cells were allowed to equilibrate and divide overnight at 37°C, in 5% CO₂, then treated in duplicate wells with ADR at 2.5, 5, 10, and 20 uM. Other duplicate wells were treated with CB at 2.5, 5, 7.5, 10, and 20 uM. Duplicate wells also contained the above amounts of ADR and CB, which were added to the cells simultaneously. […] After 3 hours of incubation at 37°C, the cells from each well were transferred to sterile centrifuge tubes, and the wells washed with 2.0 ml of sterile medium to assure full cell transfer. The tubes were centrifuged at 600 x g for 5 minutes, and the drug-medium decanted and discarded. The cells were then resuspended in 2.0 ml of fresh medium and plated into 24-well plates, incubated at 37° C for 96 hours, and cell viability and growth after treatment determined by Coulter counting.

[6] = short-term exposure of about 2 hours; cited from earlier work
[7] = CB on Day 1 or when the nodule was detected

C=C1C(C)C2C(Cc3ccccc3)NC(=O)C23OC(=O)C=CC(O)CCCC(C)CC=CC3C1O (stereo not drawn) [CB, cytochalasin B]
toxicity in DMSO relative to CM-Cellulose/Tween 20 ([1]; IP administration (Example 8)): approximately twice as toxic
toxicity in DMSO relative to CM-Cellulose/Tween 20 ([1]; SC administration (Example 9)): approximately twice as toxic
MTD ([1]; ip, CB suspension in carboxymethyl cellulose(1%)/Tween-20 (2%), single bolus, CD2F₁ mice): 50 mg/kg
MTD ([1]; ip, in DMSO): 25 mg/kg
MTD ([1]; iv, CB suspension in carboxymethyl cellulose(1%)/Tween-20 (2%), single bolus, CD2F₁ mice): 10 mg/kg
MTD ([1]; iv, in 33% ethanol): 10 mg/kg
MTD ([1]; sc, CB suspension in carboxymethyl cellulose(1%)/Tween-20 (2%), single bolus, CD2F₁ mice): 100 mg/kg
MTD ([1]; sc, in DMSO): < 100 mg/kg
sensitivity to CB of CD2F₁ as compared to B6D2F₁ mice ([1]; single bolus dose): Slightly greater sensitivity
persistence in liver [2]: 72 h
time by which cleared from the spleen and pancreas [2]: ≤ 12 h
tissue distribution [2]: appears at the highest levels in liver, spleen, and pancreas
remaining CB that persists in liver for up to 72 hours ([2]; some CB metabolized within the first few minutes): 35%
lung tumor nodules (metastases) versus vehicle controls ([3]; 100 mg/kg CB SC at the time of tumor detection): fewer lung tumor nodules
delay of appearance of measurable tumor nodules ([3]; 100-150 mg/kg CB SC in CMC/Tw, CD2F₁ mice, 24 hr after SC M109 challenge): 66%
animals tumor-free by Day 50 [3, 7]: 33%
median survival time [3, 7]: increased median survival time
cytotoxic effects (life span) ([3]; IV tumor challenge, 50 mg/kg CB by the IP route): no cytotoxic effects were observed
tumor metastases in the liver or spleen ([3]; SC administration of CB): No effect
tumor growth rate ([3]; SC peri-tumorally on Day 1 or when a measurable nodule was observed (around Day 6)): significant decrease in tumor growth rate
effect on SC tumor ([3]; SC single bolus 24 hours after tumor challenge or when the tumor appeared (about day 6)): delay the appearance of measurable tumor nodules, to slow growth rate of the nodule to inhibit invasion, and to extend life span
day of tumor appearance (B16F10 tumor; CB 100 mg/kg peri-tumorally on Day 1, without treatment Day 7): 18 days
tumor nodule growth rate (B16F10 tumor; CB administered subcutaneously): measurable effect
IC50 [4]: 35 to 40 µM
IC50 [5]: 35 to 40 µM
non-cytotoxic concentration [6]: up to 100 ug/ml and ≤ 200 uM

COc1cccc2c1C(=O)c1c(O)c3c(c(O)c1C2=O)C[C@@](O)(C(=O)CO)C[C@@H]3O[C@H]1C[C@H](N)[C@H](O)[C@H](C)O1 [ADR, doxorubicin, reference compound]
IC50 ([4]; 3 hours exposure, viability by MTT after 45 hours, read-out: IC50): 3.5 µM
